{"source": "patent US20140030368A1", "about": "“COMPOSITION FOR PREVENTING OR TREATING A RESPIRATORY DISEASE CONTAINING A MIXED HERBAL EXTRACT OF CNIDIUM OFFICINALE ROOT AND POLYGONI CUSPIDATI ROOT” (WHANIN PHARMACEUTICAL CO., LTD., priority 2011, published 2014)", "key": {"5-lipoxygenase": {"molecular_target": "T1, 5-lipoxygenase (Rattus norvegicus, UniProt P12527)", "T1 construct": "rat basophilic leukemia cells (RBL-1) were stabilized using serum-free RPMI medium; endogenous in cells; host or cells: RBL-1 (rat basophilic leukemia cells)", "T1 sequence (P12527 whole entry)": "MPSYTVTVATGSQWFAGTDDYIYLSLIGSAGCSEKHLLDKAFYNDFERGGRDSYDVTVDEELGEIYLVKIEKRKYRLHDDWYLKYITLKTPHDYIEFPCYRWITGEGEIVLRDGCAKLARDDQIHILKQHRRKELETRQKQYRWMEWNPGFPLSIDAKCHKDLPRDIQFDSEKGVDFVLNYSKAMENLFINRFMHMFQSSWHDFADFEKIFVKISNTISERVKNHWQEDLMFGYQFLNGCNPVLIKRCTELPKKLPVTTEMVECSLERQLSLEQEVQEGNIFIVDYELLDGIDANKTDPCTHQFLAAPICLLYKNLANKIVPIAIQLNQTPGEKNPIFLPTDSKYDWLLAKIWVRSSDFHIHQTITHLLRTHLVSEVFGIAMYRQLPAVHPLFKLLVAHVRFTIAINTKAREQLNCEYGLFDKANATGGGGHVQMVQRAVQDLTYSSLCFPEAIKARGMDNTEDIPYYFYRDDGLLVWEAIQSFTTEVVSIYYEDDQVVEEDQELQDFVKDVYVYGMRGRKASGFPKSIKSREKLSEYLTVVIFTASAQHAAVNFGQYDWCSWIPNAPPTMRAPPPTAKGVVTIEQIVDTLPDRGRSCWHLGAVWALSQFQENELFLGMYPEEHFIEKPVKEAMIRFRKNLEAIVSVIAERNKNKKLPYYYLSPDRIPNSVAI", "assay": "5-Lipoxygenase inhibitory activity (leukotriene production in RBL-1 cells, cysteinyl leukotriene EIA)", "format": "cell-based", "conditions": "2 μM; RBL-1 cells; read-out: 5-lipoxygenase inhibition rate(%)", "experimental": "Specifically, rat basophilic leukemia cells (RBL-1) were stabilized using serum-free RPMI medium at 37° C., and each of the extracts and arachidonic acid as a substrate were added thereto and incubated for 15 minutes to produce leukotriene. The amount of the produced leukotriene was measured using a cysteinyl leukotriene EIA kit. As comparative drugs, the 5-lipoxygenase inhibitors zileuton and montelukast were used."}, "[1]": {"system": "airway constriction of the sensitized guinea pigs", "assay": "Test for airway constriction inhibition (in vivo), airway resistance AUC after ovalbumin aerosol", "conditions": "oral dose 10 mg/kg"}}}
{"smiles": "CC(C)(O)c1ccccc1CC[C@@H](SCC1(CC(=O)O)CC1)c1cccc(/C=C/c2ccc3ccc(Cl)cc3n2)c1", "note": "[montelukast]", "values": [{"measurement": "inhibition at 2 µM", "setting": "5-lipoxygenase", "result": 45, "unit": "%"}, {"measurement": "Airway constriction inhibition rate (%)", "setting": "[1]", "result": 53, "unit": "%"}]}
